Experimental data: US20250122219A1 (priority 2023, published 2025)
Like-named read-outs stand apart in the source and are kept apart here.

How the values were obtained:
[1] = Cytotoxicity assay in MT-4 cells; type: cell-based; conditions: human; uninfected MT-4 cells, 5 days incubation, Cell Titer Glo; read-out: MT4 CC50
Procedure, shortened: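 Viability read by Cell Titer Glo luminescence after 5 days at 37 °C. MT-4 cells, not infected, in complete RPMI (10% FBS), received compound dilution series. Base cytotoxicity set with […] puromycin.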

[2] = test system: HIV-1 (IIIB); test: Antiviral assay in MT-4 cells; type: cell-based
Procedure, shortened: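 Read-out: CellTiter-Glo luminescence after 5 days at 37 °C, reflecting survival of MT-4 cells infected with HIV-1 IIIB (1:250 fresh stock dilution) versus mock-infected. Compounds serially diluted into RPMI with 10% FBS; AZT at 5 μM served as positive control.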

[3] = Human immunodeficiency virus 1, MT4, 120 h, HIV-1 IIIB in MT-4 cells, 5 days incubation, Cell Titer Glo, read-out: MT4 EC50

SMILES: CCCCCCCCCCCCCCCCCCOC(=O)Oc1c2n(cc(C(=O)NCc3ccc(F)cc3F)c1=O)[C@@H]1CN(C2=O)[C@@H](C)CC[C@]12CC(C)=NO2 [Example 146, (3′S,5S,7′R)-10′-((2,4-difluorobenzyl)carbamoyl)-3,3′-dimethyl-1′,11′-dioxo-1′,4′,5′,11′-tetrahydro-3′H,4H,7′H-spiro[isoxazole-5,6′-[2,7]methanopyrido[1,2-a][1,4]diazonin]-12′-yl octadecyl carbonate]
- CC50 at 5 days [1]: ≥ 50000 nM
- EC50 [2, 3]: 7.56 nM

SMILES: CCCCCCCCCC(=O)Oc1c2n(cc(C(=O)NCc3ccc(F)cc3F)c1=O)[C@@H]1CN(C2=O)[C@@H](C)CC[C@]12CC(OC)=NO2 [Example 44, (3′S,5S,7′R)-10′-((2,4-difluorobenzyl)carbamoyl)-3-methoxy-3′-methyl-1′,11′-dioxo-1′,4′,5′,11′-tetrahydro-3′H,4H,7′H-spiro[isoxazole-5,6′-[2,7]methanopyrido[1,2-a][1,4]diazonin]-12′-yl decanoate]
- CC50 at 5 days [1]: 24500 nM
- EC50 [2, 3]: 0.477 nM

SMILES: COC1=NO[C@@]2(CC[C@H](C)N3C[C@H]2n2cc(C(=O)NCc4ccc(F)cc4F)c(=O)c(OC(=O)OC(C)C)c2C3=O)C1 [Example 30, (3′S,5S,7′R)-10′-((2,4-difluorobenzyl)carbamoyl)-3-methoxy-3′-methyl-1′,11′-dioxo-1′,4′,5′,11′-tetrahydro-3′H,4H,7′H-spiro[isoxazole-5,6′-[2,7]methanopyrido[1,2-a][1,4]diazonin]-12′-yl isopropyl carbonate]
- CC50 at 5 days [1]: 12600 nM
- EC50 ([2]; Human immunodeficiency virus 1, IIIB, MT4, 120 h, read-out: MT4 EC50 (nM)): 1.3 nM

SMILES: CC1=NO[C@@]2(CC[C@H](C)N3C[C@H]2n2cc(C(=O)NCc4ccc(F)cc4F)c(=O)c(OC(=O)CCC(C)C)c2C3=O)C1 [Example 57, (3′S,5S,7′R)-10′-((2,4-difluorobenzyl)carbamoyl)-3,3′-dimethyl-1′,11′-dioxo-1′,4′,5′,11′-tetrahydro-3′H,4H,7′H-spiro[isoxazole-5,6′-[2,7]methanopyrido[1,2-a][1,4]diazonin]-12′-yl 4-methylpentanoate]
- CC50 at 5 days [1]: 23100 nM
- EC50 [2, 3]: 1.54 nM

SMILES: CCCCCCCC(=O)Oc1c2n(cc(C(=O)NCc3ccc(F)cc3F)c1=O)[C@@H]1CN(C2=O)[C@@H](C)CC[C@]12CC(OC)=NO2 [Example 40, (3′S,5S,7′R)-10′-((2,4-difluorobenzyl)carbamoyl)-3-methoxy-3′-methyl-1′,11′-dioxo-1′,4′,5′,11′-tetrahydro-3′H,4H,7′H-spiro[isoxazole-5,6′-[2,7]methanopyrido[1,2-a][1,4]diazonin]-12′-yl octanoate]
- CC50 at 5 days [1]: 25100 nM
- EC50 [2, 3]: 0.592 nM

SMILES: COC(=O)Oc1c2n(cc(C(=O)NCc3ccc(F)cc3F)c1=O)[C@@H]1CN(C2=O)[C@@H](C)CC[C@]12CC(C)=NO2 [Example 121, (3′S,5S,7′R)-10′-((2,4-difluorobenzyl)carbamoyl)-3,3′-dimethyl-1′,11′-dioxo-1′,4′,5′,11′-tetrahydro-3′H,4H,7′H-spiro[isoxazole-5,6′-[2,7]methanopyrido[1,2-a][1,4]diazonin]-12′-yl methyl carbonate]
- CC50 at 5 days [1]: 18900 nM
- EC50 [2, 3]: 1.17 nM

SMILES: CCCCCCCCCCCCCCCC(=O)OCOc1c2n(cc(C(=O)NCc3ccc(F)cc3F)c1=O)[C@@H]1CN(C2=O)[C@@H](C)CC[C@]12CC(C)=NO2 [Example 105, (((3′S,5S,7′R)-10′-((2,4-difluorobenzyl)carbamoyl)-3,3′-dimethyl-1′,11′-dioxo-1′,4′,5′,11′-tetrahydro-3′H,4H,7′H-spiro[isoxazole-5,6′-[2,7]methanopyrido[1,2-a][1,4]diazonin]-12′-yl)oxy)methyl palmitate]
- CC50 at 5 days [1]: ≥ 50000 nM
- EC50 [2, 3]: 22.5 nM

SMILES: CCCCCCOC(=O)OCOc1c2n(cc(C(=O)NCc3ccc(F)cc3F)c1=O)[C@@H]1CN(C2=O)[C@@H](C)CC[C@]12CC(OC)=NO2 [Example 182, (((3′S,5S,7′R)-10′-((2,4-difluorobenzyl)carbamoyl)-3-methoxy-3′-methyl-1′,11′-dioxo-1′,4′,5′,11′-tetrahydro-3′H,4H,7′H-spiro[isoxazole-5,6′-[2,7]methanopyrido[1,2-a][1,4]diazonin]-12′-yl)oxy)methyl hexyl carbonate]
- CC50 at 5 days [1]: 47900 nM
- EC50 [2, 3]: 0.29 nM

SMILES: CCC(=O)OCOc1c2n(cc(C(=O)NCc3ccc(F)cc3F)c1=O)[C@@H]1CN(C2=O)[C@@H](C)CC[C@]12CC(C)=NO2 [Example 86, (((3′S,5S,7′R)-10′-((2,4-difluorobenzyl)carbamoyl)-3,3′-dimethyl-1′,11′-dioxo-1′,4′,5′,11′-tetrahydro-3′H,4H,7′H-spiro[isoxazole-5,6′-[2,7]methanopyrido[1,2-a][1,4]diazonin]-12′-yl)oxy)methyl propionate]
- CC50 at 5 days [1]: 21000 nM
- EC50 [2, 3]: 2.53 nM

SMILES: CC1=NO[C@@]2(CC[C@H](C)N3C[C@H]2n2cc(C(=O)NCc4ccc(F)cc4F)c(=O)c(OC(=O)OCCCCCCCC(C)C)c2C3=O)C1 [Example 160, (3′S,5S,7′R)-10′-((2,4-difluorobenzyl)carbamoyl)-3,3′-dimethyl-1′,11′-dioxo-1′,4′,5′,11′-tetrahydro-3′H,4H,7′H-spiro[isoxazole-5,6′-[2,7]methanopyrido[1,2-a][1,4]diazonin]-12′-yl (8-methylnonyl) carbonate]
- CC50 at 5 days [1]: 12600 nM
- EC50 [2, 3]: 1.64 nM

SMILES: CCCCCCCCCOC(=O)Oc1c2n(cc(C(=O)NCc3ccc(F)cc3F)c1=O)[C@@H]1CN(C2=O)[C@@H](C)CC[C@]12CC(C)=NO2 [Example 137, (3′S,5S,7′R)-10′-((2,4-difluorobenzyl)carbamoyl)-3,3′-dimethyl-1′,11′-dioxo-1′,4′,5′,11′-tetrahydro-3′H,4H,7′H-spiro[isoxazole-5,6′-[2,7]methanopyrido[1,2-a][1,4]diazonin]-12′-yl nonyl carbonate]
- CC50 at 5 days [1]: 10200 nM
- EC50 [2, 3]: 2.07 nM

SMILES: CCCCCCCCCOC(=O)Oc1c2n(cc(C(=O)NCc3ccc(F)cc3F)c1=O)[C@@H]1CN(C2=O)[C@@H](C)CC[C@]12CC(OC)=NO2 [Example 138, (3′S,5S,7′R)-10′-((2,4-difluorobenzyl)carbamoyl)-3-methoxy-3′-methyl-1′,11′-dioxo-1′,4′,5′,11′-tetrahydro-3′H,4H,7′H-spiro[isoxazole-5,6′-[2,7]methanopyrido[1,2-a][1,4]diazonin]-12′-yl nonyl carbonate]
- CC50 at 5 days [1]: 14100 nM
- EC50 [2, 3]: 2.14 nM

SMILES: CCCCCCCCCCCCCCCCCC(=O)Oc1c2n(cc(C(=O)NCc3ccc(F)cc3F)c1=O)[C@@H]1CN(C2=O)[C@@H](C)CC[C@]12CC(OC)=NO2 [Example 6, (3′S,5S,7′R)-10′-((2,4-difluorobenzyl)carbamoyl)-3-methoxy-3′-methyl-1′,11′-dioxo-1′,4′,5′,11′-tetrahydro-3′H,4H,7′H-spiro[isoxazole-5,6′-[2,7]methanopyrido[1,2-a][1,4]diazonin]-12′-yl stearate]
- CC50 at 5 days [1]: ≥ 50000 nM
- EC50 [2, 3]: 9.48 nM

SMILES: CC1=NO[C@@]2(CC[C@H](C)N3C[C@H]2n2cc(C(=O)NCc4ccc(F)cc4F)c(=O)c(OC(=O)CCCCCC(C)C)c2C3=O)C1 [Example 65, (3′S,5S,7′R)-10′-((2,4-difluorobenzyl)carbamoyl)-3,3′-dimethyl-1′,11′-dioxo-1′,4′,5′,11′-tetrahydro-3′H,4H,7′H-spiro[isoxazole-5,6′-[2,7]methanopyrido[1,2-a][1,4]diazonin]-12′-yl 7-methyloctanoate]
- CC50 at 5 days [1]: 21800 nM
- EC50 [2, 3]: 3.01 nM

SMILES: CCCCCCCOC(=O)Oc1c2n(cc(C(=O)NCc3ccc(F)cc3F)c1=O)[C@@H]1CN(C2=O)[C@@H](C)CC[C@]12CC(OC)=NO2 [Example 134, (3′S,5S,7′R)-10′-((2,4-difluorobenzyl)carbamoyl)-3-methoxy-3′-methyl-1′,11′-dioxo-1′,4′,5′,11′-tetrahydro-3′H,4H,7′H-spiro[isoxazole-5,6′-[2,7]methanopyrido[1,2-a][1,4]diazonin]-12′-yl heptyl carbonate]
- CC50 at 5 days [1]: 25700 nM
- EC50 [2, 3]: 0.516 nM

SMILES: COCCCCCC(=O)Oc1c2n(cc(C(=O)NCc3ccc(F)cc3F)c1=O)[C@@H]1CN(C2=O)[C@@H](C)CC[C@]12CC(OC)=NO2 [Example 70, (3′S,5S,7′R)-10′-((2,4-difluorobenzyl)carbamoyl)-3-methoxy-3′-methyl-1′,11′-dioxo-1′,4′,5′,11′-tetrahydro-3′H,4H,7′H-spiro[isoxazole-5,6′-[2,7]methanopyrido[1,2-a][1,4]diazonin]-12′-yl 6-methoxyhexanoate]
- CC50 at 5 days [1]: 17600 nM
- EC50 [2, 3]: 1.02 nM

SMILES: COC[C@@H](C)OC(=O)OCOc1c2n(cc(C(=O)NCc3ccc(F)cc3F)c1=O)[C@@H]1CN(C2=O)[C@@H](C)CC[C@]12CC(C)=NO2 [Example 213, (((3′S,5S,7′R)-10′-((2,4-difluorobenzyl)carbamoyl)-3,3′-dimethyl-1′,11′-dioxo-1′,4′,5′,11′-tetrahydro-3′H,4H,7′H-spiro[isoxazole-5,6′-[2,7]methanopyrido[1,2-a][1,4]diazonin]-12′-yl)oxy)methyl ((R)-1-methoxypropan-2-yl) carbonate]
- CC50 at 5 days [1]: ≥ 50000 nM
- EC50 [2, 3]: 8.29 nM

SMILES: COC1=NO[C@@]2(CC[C@H](C)N3C[C@H]2n2cc(C(=O)NCc4ccc(F)cc4F)c(=O)c(OCOC(=O)OCCCCCCCC(C)C)c2C3=O)C1 [Example 212, (((3′S,5S,7′R)-10′-((2,4-difluorobenzyl)carbamoyl)-3-methoxy-3′-methyl-1′,11′-dioxo-1′,4′,5′,11′-tetrahydro-3′H,4H,7′H-spiro[isoxazole-5,6′-[2,7]methanopyrido[1,2-a][1,4]diazonin]-12′-yl)oxy)methyl (8-methylnonyl) carbonate]
- CC50 at 5 days [1]: ≥ 50000 nM
- EC50 [2, 3]: 8.6 nM
